Experimental data reported in article PMC3856494, “Radiofluorination and biological evaluation of N-aryl-oxadiazolyl-propionamides as potential radioligands for PET imaging of cannabinoid CB2 receptors” (Organic and Medicinal Chemistry Letters, 2013).

What was measured:
[1] = Ex vivo biodistribution (organ distribution) in mice; settings: i.v. 300 to 400 kBq, female CD1 mice
Method: (§1) Female CD1 mice (10 to 12 weeks old, 20 to 25 g) received an injection of 300 to 400 kBq of [^18F]1 or [^18F]2 with specific activities of >450 GBq/μmol in 200 μL of 0.9% NaCl/10% EtOH into the tail vein. The animals were anesthetized (CO2/O2 mixture) for blood and urine sampling and euthanized by luxation of the cervical spine at 5, 30, and 60 min after injection (p.i.) (n = 2 to 5 per time). The organs of interest were removed and weighed, and the activities were measured by γ counting using a calibrated γ counter Wallac Wizard 1470 (Perkin Elmer Inc., Waltham, MA, USA). The percentage of injected dose per gram of wet tissue (% ID/g wet weight) was calculated.

[2] = biological target: CB2R (Mus musculus, UniProt P47936); design: species or system female CD1 mice; settings: female, CD1, mouse, in vivo
Method: as §1
(3 mg/kg i.p. in 0.9% saline, 10 min before the injection of the radiotracer) at 60 min p.i. (n = 2 to 5). The unpaired two-tailed t test was used to compare the results between the groups. We considered differences to be significant at a p value <0.05.

[3] = Ex vivo metabolite studies (radio-HPLC of plasma and brain extracts); type: in vivo, CD1 mice; settings: mice
Method: [^18F]1 and [^18F]2 (100 to 150 MBq, 250 to 450 GBq/μmol in 150 μL NaCl 0.9%/10% EtOH) were injected via the tail vein in CD1 male mice (10 to 12 weeks old, 20 to 25 g). Blood and urine samples were obtained at 30 and 60 min p.i. (n = 3 per time point). Twofold extractions of plasma and brain samples (n = 3) were performed using ice-cold MeCN according to the standard protocol established in our group (see [47, 48]). Briefly, plasma samples were obtained by centrifugation of the blood at 4,000×g at 4°C for 10 min, and brain samples were homogenized in ice-cold 50 mM Tris–HCl (pH = 7.4). The samples were vortexed, incubated on ice, and centrifuged at 10,000×g for 3 min. Supernatants were collected, and the precipitates were re-dissolved in ice-cold MeCN for the second extraction. The supernatants from the two extractions were combined, concentrated under a gentle argon stream at 65°C, and analyzed by radio-TLC and gradient analytical HPLC (see ‘Radiochemistry’ section). Aliquots from each extraction supernatant and the precipitates were also taken and quantified by γ counting (Wallac Wizard 1470, Perkin Elmer Inc., Waltham, MA, USA) along with the respective aliquots of intact plasma samples and brain homogenates. A moderate recovery of radioactivity was obtained from plasma samples and brain homogenates (60% to 70%). Radiometabolites of [^18F]17 in the plasma, spleen, and brain were assessed at 30 and 60 min p.i.

Chain of CB2R (P47936 whole entry): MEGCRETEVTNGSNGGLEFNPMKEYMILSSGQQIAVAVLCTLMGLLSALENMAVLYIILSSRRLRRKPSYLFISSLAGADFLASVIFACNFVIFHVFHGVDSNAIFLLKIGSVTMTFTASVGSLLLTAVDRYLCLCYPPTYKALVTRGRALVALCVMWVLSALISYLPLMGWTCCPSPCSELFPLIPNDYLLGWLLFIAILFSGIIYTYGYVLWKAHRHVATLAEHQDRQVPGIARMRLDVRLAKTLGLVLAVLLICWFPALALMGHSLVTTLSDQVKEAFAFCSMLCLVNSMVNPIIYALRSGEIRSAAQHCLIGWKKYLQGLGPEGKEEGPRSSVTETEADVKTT

O=C(CCc1nc(-c2ccc(F)cc2Br)no1)Nc1ccc2c(c1)c1ccccc1n2CC[18F] [[^18F]1]
Radioactivity uptake, Spleen, Control 5 min [1]: 3.44 ± 0.77 % ID/g | Radioactivity uptake, Spleen, Control 30 min [1]: 1.46 ± 0.56 % ID/g | Radioactivity uptake, Spleen, Control 60 min [1]: 1.52 ± 0.62 % ID/g | Radioactivity uptake, Stomach, Control 5 min [1]: 2.05 ± 0.33 % ID/g | Radioactivity uptake, Stomach, Control 30 min [1]: 1.23 ± 0.36 % ID/g | Radioactivity uptake, Stomach, Control 60 min [1]: 2.70 ± 1.47 % ID/g | Radioactivity uptake, Thymus, Control 5 min [1]: 3.30 ± 0.58 % ID/g | Radioactivity uptake, Thymus, Control 30 min [1]: 1.57 ± 0.80 % ID/g | Radioactivity uptake, Thymus, Control 60 min [1]: 1.90 ± 0.98 % ID/g | Radioactivity uptake, Adrenals, Blocking 60 min ([2]; 3 mg/kg, 1 h): 3.00 ± 0.64 % ID/g | Radioactivity uptake, Bladder, Blocking 60 min ([2]; 3 mg/kg, 1 h): 5.07 ± 3.84 % ID/g | Radioactivity uptake, Blood, Blocking 60 min ([2]; 3 mg/kg, 1 h): 1.43 ± 0.34 % ID/g | Radioactivity uptake, Brain, Blocking 60 min ([2]; 3 mg/kg, 1 h): 0.66 ± 0.11 % ID/g | Radioactivity uptake, Femur, Blocking 60 min ([2]; 3 mg/kg, 1 h): 1.49 ± 0.45 % ID/g | Radioactivity uptake, Gonads, Blocking 60 min ([2]; 3 mg/kg, 1 h): 1.19 ± 0.30 % ID/g | Radioactivity uptake, Heart, Blocking 60 min ([2]; 3 mg/kg, 1 h): 1.49 ± 0.29 % ID/g | Radioactivity uptake, Kidney, Blocking 60 min ([2]; 3 mg/kg, 1 h): 1.74 ± 0.48 % ID/g | Radioactivity uptake, Large intestine, Blocking 60 min ([2]; 3 mg/kg, 1 h): 1.63 ± 0.64 % ID/g | Radioactivity uptake, Liver, Blocking 60 min ([2]; 3 mg/kg, 1 h): 4.22 ± 0.96 % ID/g | Radioactivity uptake, Lung, Blocking 60 min ([2]; 3 mg/kg, 1 h): 1.47 ± 0.29 % ID/g | Radioactivity uptake, Muscle, Blocking 60 min ([2]; 3 mg/kg, 1 h): 0.93 ± 0.23 % ID/g | Radioactivity uptake, Pancreas, Blocking 60 min ([2]; 3 mg/kg, 1 h): 1.03 ± 0.26 % ID/g | Radioactivity uptake, Plasma, Blocking 60 min ([2]; 3 mg/kg, 1 h): 1.87 ± 0.41 % ID/g | Radioactivity uptake, Small intestine, Blocking 60 min ([2]; 3 mg/kg, 1 h): 19.39 ± 5.53 % ID/g | Radioactivity uptake, Spleen, Blocking 60 min ([2]; 3 mg/kg, 1 h): 0.98 ± 0.21 % ID/g | Radioactivity uptake, Stomach, Blocking 60 min ([2]; 3 mg/kg, 1 h): 1.84 ± 1.28 % ID/g | Radioactivity uptake, Thymus, Blocking 60 min ([2]; 3 mg/kg, 1 h): 1.50 ± 0.35 % ID/g | % control, Adrenals ([2]; 60 min): 95 % control | % control, Bladder ([2]; 60 min): 155 % control | % control, Blood ([2]; 60 min): 74 % control | % control, Brain ([2]; 60 min): 72 % control | % control, Femur ([2]; 60 min): 81 % control | % control, Gonads ([2]; 60 min): 89 % control | % control, Heart ([2]; 60 min): 90 % control | % control, Kidney ([2]; 60 min): 106 % control | % control, L. intestine ([2]; 60 min): 106 % control | % control, Liver ([2]; 60 min): 80 % control | % control, Lung ([2]; 60 min): 83 % control | % control, Muscle ([2]; 60 min): 104 % control | % control, Pancreas ([2]; 60 min): 91 % control | % control, Plasma ([2]; 60 min): 75 % control | % control, S. intestine ([2]; 60 min): 88 % control | % control, Spleen ([2]; 60 min): 65 % control | % control, Stomach ([2]; 60 min): 68 % control | % control, Thymus ([2]; 60 min): 79 % control | Percentage of total activity in brain samples, 30 min p.i. ([3]; brain homogenate extract, 30 min p.i. of [18F]1 or [18F]2, radio-HPLC): 68% | Percentage of total activity in brain samples, 60 min p.i. ([3]; brain homogenate extract, 60 min p.i. of [18F]1 or [18F]2, radio-HPLC): 35% | Relative percentage of intact tracer and radiometabolites, Plasma 30 min p.i. ([3]; plasma, 30 min p.i. of [18F]1 or [18F]2, radio-HPLC): 60% | Relative percentage of intact tracer and radiometabolites, Plasma 60 min p.i. ([3]; plasma, 60 min p.i. of [18F]1 or [18F]2, radio-HPLC): 7%
